Data on twelve molecules can be found in US7205002B2, “Method of making, and the use of cytotoxic agents containing elemental selenium” (MCW Research Foundation, Inc., priority 2002, dated 2007).

Like-named read-outs stand apart in the source and are kept apart here. * marks the point of attachment. Cbz = O=C(OCc1ccccc1)*; CH2F = FC*

Data set [1] concerns L1210 leukemia cells. The data set is described as follows: Cytotoxic activity of conjugates formed by dye photoproducts and serum (lipo)proteins, in vitro clonal assay. The class given is cell-based, murine. The protocol: The mixtures were exposed to white light (27 W/m^2) for 60 min as deescribed above. […] To assess cytotoxic activity, cytotoxic conjugates were made isotonic by the addition of an appropriate volume of double-concentrated alpha-medium and incubated with L1210 leukemia cells for 60 min at 37° C. The surviving fraction of in vitro clonogenic leukemia cells was determined by in vitro clonal assay as described in Sieber, F. et al., 1984, which is incorporated by reference in its entirety. […] The fluorescence yield of fluorescent photoproduct-albumin conjugates was determined with a Hitachi F4500 fluorescence spectrophotometer. All samples were serially diluted with buffer to rule out artifacts due to self-quenching. In vitro clonal assays of L1210 murine leukemia cells were used to assess cytotoxic activity.

In data set [2] the test system is female B6D2F1 mice. Description: Acute systemic toxicity, intraperitoneal injection. The data set is classed as in vivo. Particulars: MC54 26 μM with equimolar bovine serum albumin; 1-ml i.p. injection on 1 to 5 consecutive days. The procedure:
Acute Systemic Toxicity of Photoproduct-Protein Conjugates in Mice: In an initial acute toxicity study, groups of 5 female B6D2F1 mice were injected intraperitoneally with photoproduct-protein conjugates. The photoproduct-protein conjugates were generated by photobleaching the selenomerocyanine MC54 (26 μM) in the presence of an equimolar concentration of bovine serum albumin. Group 1 received one 1-ml intraperitoneal injection of this conjugate. Groups 2 through 5 received the same injection of conjugates on 2, 3, 4, or 5 consecutive days, respectively.
The second toxicity experiment used conjugates that had been prepared with a dye-to-protein ratio of 5:1. Since MC54 was added from stock solutions in ethanol, the mice of the second series were exposed to 5-fold higher doses of ethanol.

For data set [3], the system named is caspase activity in L1210 leukemia cells. The data set is described as follows: Caspase Detection Kit (FITC-VAD-FMK) with specific peptide inhibitors. Particulars: inhibitor 0.1 mM, 37° C., 1 hour. The class given is cell-based, murine. The protocol:
Conjugates were derived from MC56 to avoid a spectral interference with the fluorescent caspase substrate. The protein source was fetal bovine serum. Caspase inhibitors were used as recommended by the manufacturer (R&D Systems). That is, each sample contained 10^6 cells, and the final concentration of inhibitors was 0.1 mM. Incubation was at 37° C. for 1 hour. […] In FIG. 12, the “Z-” prefix and the “-FMK” suffix are omitted because of space limitations.
We have used the Oncogene (San Diego, Calif.) Caspase Detection Kit to monitor caspase activity in L1210 leukemia cells after exposure to cytotoxic Se(0)-protein conjugates. The kit uses a fluorescent substrate (FITC-VAD-FMK; a conjugate of fluoresceinisothiocyanate with a fluoromethylketone-derivaticed short peptide) that detects a broad range of caspases. When FITC-VAD-FMK is used in conjunction with non-cytotoxic concentrations of specific peptide inhibitors (R&D Systems, Minneapolis, Minn.), the inhibition of the fluorescent signal is directly proportional to the contribution of the respective caspases to the overall signal. […] Caspases 2, 4 and 9 show moderate activation whereas caspases 1, 3, 6 and 8 show little or no activity. […]

In data set [4] the test system is melphalan-resistant mutant L1210/L-PAM1 cells. Description: Surviving fraction after 45 min exposure, in vitro clonal assay. The class given is cell-based, murine. The settings on record: 10 μg/ml. The protocol:
(§1) Cytotoxic Se(0)-protein conjugates were generated by exposing alpha-medium supplemented with fetal bovine serum (10%) and selenomerocyanine photosensitizer MC54 (26 μM) to cool white fluorescent light (fluence rate: 27 W/m^2) for 60 min. Wild-type L1210 leukemia cells, melphalan-resistant mutant L1210/L-PAM1 cells, or normal murine granulocyte/macrophage progenitors (mCFU-GM) (10^6/ml) were suspended either in cytotoxic conjugates or in alpha-medium supplemented with 4-HC (10 μg/ml) and incubated for 45 min at 37° C. Treatment conditions were selected to achieve a similar recovery of normal murine hematopoietic progenitor cells (mCFU-GM). Cells were washed free of excess conjugates or drug, and surviving fractions were determined by in vitro clonal assay.

Data set [5] deals with Wild-type L1210 leukemia cells. The description is as above. The class given is cell-based, murine. The settings on record: 10 μg/ml. The protocol: as §1
Data set [6] concerns normal murine granulocyte/macrophage progenitors (mCFU-GM). The data set is described as above. The class given is cell-based. The settings on record: 10 μg/ml. The protocol:
as §1

For data set [7], the system named is tumor cells. Description: Interactions of conjugates with ionizing radiation and standard chemotherapeutic agents. The settings on record: 30 min pretreatment, nontoxic 3 mg/ml.
Source text: Alternatively, 5 or 6 doses of conjugates were used in combination with one or two doses of a drug. Depending on the combination, the two agents were applied either sequentially or simultaneously. […] For each combination, two or more target cells were selected from the following panel of tumor cell lines: L1210 and HL-60/ADR leukemia cells, PC3 and DU145 prostate cancer cells, H69 lung cancer cells, Mm5MT, MDA-MB-23 1, MDA-MB-435 and C1271 breast cancer cells, and SK-ES-1 Ewing's sarcoma cells.
Data set [8] concerns DU145 prostate cancer cells. The data set is described as follows: Cytotoxicity of conjugates alone or in combination. The data set is classed as cell-based, human. The procedure:
The study was conducted with DU145 human prostate cancer cells. The protein source was fetal bovine serum, and the data points are means of 4 plates±SE.

Data set [9] relates to MDA-MB-435 breast cancer cells. The data set is described as follows: Cytotoxicity of conjugates in combination. The settings on record: 0.5 mM; 20 hours. The data set is classed as cell-based, human.
Data set [10] has as its system PC3 prostate cancer cells. The data set is described as follows: Cytotoxicity of conjugates in combination. The class given is cell-based.
For data set [11] the following is noted: in vivo; cited from earlier work.

As to “Carboxymethylated bovine serum albumin: commercial product from Sigma Chemical Co.”, in data set [1], the “Cytotoxic Activity” value is on record as “no”.
On the same count and under the same terms, the same measure for `CCCCN1C(=O)C(=C/C=C/C=C2\Oc3ccccc3N2CCCS(=O)(=O)[O-])C(=O)N(CCCC)C1=S.[Na+]` [MC540]: “no”.
As for “photoproduct-protein conjugates: generated by photobleaching the selenomerocyanine MC54 (26 μM) in the presence of an equimolar concentration of bovine serum albumin”, in data set [2], the Signs of toxicity entry was “None of the animals showed signs of acute or chronic toxicity” and the Survival result is given as “All animals survived”.
In the case of Cbz-Val-Ala-Asp-CH2F, the “Inhibition of the fluorescent caspase signal” value in data set [3] is given as “reduced the fluorescence signal more than any of the specific inhibitors”.
Take `O=P1(N(CCCl)CCCl)NC(OO)CCO1` (stereo not shown) [Dye 4-HC, 4-Hydroperoxycyclophosphamide]: the “Surviving Fraction” value amounted to 0.2636 ± 0.0074 in data set [4], 0.0460 ± 0.0043 in data set [5] and 0.0088 ± 0.0025 in [6].
As to Fetal bovine serum, the “Cytotoxic Activity” value in data set [1] was “yes”.
On to `NCCCNCCSP(=O)(O)O` [amifostine], for which the “Effect of pretreatment on response to cytotoxic conjugates” value in [7] is “sensitized tumor cells to cytotoxic conjugates”.
“Bovine serum albumin: carrier protein for conjugates with MC54-derived photoproducts”: in data set [1], the “Cytotoxic Activity” value is “yes”.
With `CCCCS(=N)(=O)CCC(N)C(=O)O` (stereo not shown) [buthionine sulfoximine], the “Effect of pretreatment on response to conjugates” value is on record as “improved the response” in data set [8] (0.5 mM, 20 hours); “little or no effect” in [9]; “little or no effect” in [10] (0.5 mM, 20 hours).
Regarding `CCO` [Ethanol], the “Cytotoxic Activity” value in [1] (MC54-derived photoproducts with the given solvent/protein) is “no”.
For albumin, the half-life result in [11] is given as “approximately 19 days”. For the same molecule, the “Cytotoxicity of conjugates by carrier (lipo)protein” value in data set [1] is given as “more cytotoxic than conjugates formed by HDL”.
Regarding `N.N.[Cl][Pt][Cl]` [cisplatin], the “Antitumor effect, sequential exposure with conjugates” value in [8] (sequential exposure) and in data set [10] (sequential exposure) was “additive” throughout.
